In patent publication US10189812B2, “Bi-benzyl isoquinoline derivative, preparation method and use thereof in hepatopathy treatment and prevention” (THE KEY LABORATORY OF CHEMISTRY FOR NATURAL PRODUCTS OF …, priority 2014, dated 2019):
Read-outs that look alike come from different tables or passages of the source.

Tests used:
[1] = test system: PLC/PRF/5 liver cancer cell strains; assay: Tetrazolium salt reduction method (MTT) on human liver cancer cell strain PLC/PRF/5; format: cell-based
Procedure: 2. human liver cancer cell strains PLC/PRF/5 model discrimination
(§1) Tested methods: Tetrazolium salt reduction method (MTT)
(1) Inoculating cells: A uniform cell suspension was prepared with culture solution containing fetal calf serum (10%). The suspension was implanted into a 96-well cell culture disc by 1000-10000 cells/200 μL per well.
(§2) (2) Culturing cells: The cells were cultured for 3-5 days according to known methods in the art (culturing time depending on experiment objective and requirement).
(§3) (3) Colour response: The cells were cultured for 3-5 days, 20 μl of MTT solution (5 mg/mL, PBS <pH=7.4>) was added in each well, incubated for 4 h. Culture was terminated and the culture suspension was carefully sucked out. As for suspension cells, they need be centrifuged before suspension solution in wells was sucked out. 150 μL of DMSO was added in each well, vibrated for 10 min. The crystal was fully dissolved.
(§4) (4) Colorimetry: Light absorbance values in each well were measured by ELISA at 490 nm and the results were recorded. The cell growth curve was drawn with time as the abscissa and absorbance values as vertical coordinates.
Model principle: Dehydrogenase related to NADP exists in mitochondria of living cell. Yellow MIT is reduced to insoluble blue-purple Formanzan. Dehydrogenase is disappeared in dead cell and MIT can not be reduced. According to reduction extent, action effect of sample on tumor cell is defected.

[2] = test system: MHCC97L liver cancer cell strains; assay: Tetrazolium salt reduction method (MTT) on human liver cancer cell strain MHCC97L; format: cell-based
Procedure: 3. human liver cancer cell strains MHCC97L model discrimination
as §1
(1) Inoculating cells: Inoculating cells: A uniform cell suspension was prepared with culture solution containing fetal calf serum (10%). The suspension was implanted into a 96-well cell culture disc by 1000-10000 cells/200 μL per well.
as §2, §3, §4
Model principle: Dehydrogenase related to NADP exists in mitochondria of living cell. Yellow MTT is reduced to insoluble blue-purple Formanzan. Dehydrogenase is disappeared in dead cell and MTT can not be reduced. According to reduction extent, action effect of sample on tumor cell is defected.

[3] = Homo sapiens, PLC-PRF-5, read-out: PLC/PRF/5 IC50 (μM)
[4] = Homo sapiens, MHCC97L, read-out: MHCC97L IC50 (μM)
[5] = MTT, cells cultured 3-5 days, read-out: PLC/PRF/5 IC50
[6] = MTT, cells cultured 3-5 days, read-out: MHCC97L IC50
[7] = Homo sapiens, PLC-PRF-5, MTT, cells cultured 3-5 days, read-out: PLC/PRF/5 IC50
[8] = Homo sapiens, MHCC97L, MTT, cells cultured 3-5 days, read-out: MHCC97L IC50

Row | SMILES | IC50 [1, 5] [µM] | IC50 [2, 6] [µM] | IC50 [1, 7] [µM] | IC50 [2, 8] [µM] | further results
1 | COc1cc(NC(C)=O)c2cc1Oc1ccc(cc1)C[C@H]1c3cc(c(OC)cc3CCN1C)Oc1c(OC)c(OC)cc3c1[C@H](C2)N(C)CC3 [Compound H-01] |  |  |  |  | IC50 [1, 3]: 12.3 µM; IC50 [2, 4]: 12.9 µM
2 | COc1ccc(C(=O)Nc2cc(OC)c3cc2C[C@H]2c4c(cc(OC)c(OC)c4Oc4cc5c(cc4OC)CCN(C)[C@H]5Cc4ccc(cc4)O3)CCN2C)cc1 [Compound H-04] | 5.4 | 12.2 |  |  | 
3 | COc1cc(NC(=O)OCC(C)C)c2cc1Oc1ccc(cc1)C[C@H]1c3cc(c(OC)cc3CCN1C)Oc1c(OC)c(OC)cc3c1[C@H](C2)N(C)CC3 [Compound H-08] | 4.6 | 1.4 |  |  | 
4 | COc1cc(NC(=O)CO)c2cc1Oc1ccc(cc1)C[C@H]1c3cc(c(OC)cc3CCN1C)Oc1c(OC)c(OC)cc3c1[C@H](C2)N(C)CC3 [Compound H-12] |  |  | 10.1 | 9.1 | 
5 | COc1cc(NC(=O)COC(C)=O)c2cc1Oc1ccc(cc1)C[C@H]1c3cc(c(OC)cc3CCN1C)Oc1c(OC)c(OC)cc3c1[C@H](C2)N(C)CC3 [Compound H-13] | 10.1 | 8.4 |  |  | 
6 | COC(=O)C(=O)Nc1cc(OC)c2cc1C[C@H]1c3c(cc(OC)c(OC)c3Oc3cc4c(cc3OC)CCN(C)[C@H]4Cc3ccc(cc3)O2)CCN1C [Compound H-14] | 12.7 | 7.9 |  |  | 
7 | COc1cc(NS(C)(=O)=O)c2cc1Oc1ccc(cc1)C[C@H]1c3cc(c(OC)cc3CCN1C)Oc1c(OC)c(OC)cc3c1[C@H](C2)N(C)CC3 [Compound H-17] |  |  | 4.6 | 9.8 | 
8 | COc1cc(NS(=O)(=O)c2ccccc2)c2cc1Oc1ccc(cc1)C[C@H]1c3cc(c(OC)cc3CCN1C)Oc1c(OC)c(OC)cc3c1[C@H](C2)N(C)CC3 [Compound H-18] | 10.7 | 9.1 |  |  | 
9 | COc1cc(NS(=O)(=O)c2ccccc2[N+](=O)[O-])c2cc1Oc1ccc(cc1)C[C@H]1c3cc(c(OC)cc3CCN1C)Oc1c(OC)c(OC)cc3c1[C@H](C2)N(C)CC3 [Compound H-21] | 10.8 | 11.3 |  |  | 
10 | COc1cc(NS(=O)(=O)c2ccc(Cl)cc2Cl)c2cc1Oc1ccc(cc1)C[C@H]1c3cc(c(OC)cc3CCN1C)Oc1c(OC)c(OC)cc3c1[C@H](C2)N(C)CC3 [Compound H-22] | 2.1 | 5.6 |  |  | 
11 | COc1cc([N+](=O)[O-])c2cc1Oc1ccc(cc1)C[C@H]1c3cc(c(OC)cc3CCN1C)Oc1c(OC)c(OC)cc3c1[C@H](C2)N(C)CC3 [Compound H-27] |  |  |  |  | IC50 [1, 3]: 2.9 µM; IC50 [2, 4]: 1.9 µM
12 | COc1cc([N+](=O)[O-])c2cc1Oc1ccc(cc1)C[C@H]1c3cc(c(OC)cc3CCN1C)Oc1c(OC)c(OC)c([N+](=O)[O-])c3c1[C@H](C2)N(C)CC3 [Compound H-28] |  |  | 20.1 | 8.1 | 
13 | COc1cc(N)c2cc1Oc1ccc(cc1)C[C@H]1c3cc(c(OC)cc3CCN1C)Oc1c(OC)c(OC)cc3c1[C@H](C2)N(C)CC3 [Compound H-29] |  |  | 14.8 | 10.1 | 
14 | COc1cc(N=O)c2cc1Oc1ccc(cc1)C[C@H]1c3cc(c(OC)cc3CCN1C)Oc1c(OC)c(OC)cc3c1[C@H](C2)N(C)CC3 [Compound H-30] |  |  |  | 10.7 | 
15 | COc1ccc2cc1Oc1ccc(cc1)C[C@H]1c3cc(c(OC)cc3CCN1C)Oc1c(OCc3ccccc3)c(OC)cc3c1[C@H](C2)[N+](C)(Cc1ccccc1)CC3 (some centres unmarked) [Compound H-31] |  |  |  |  | IC50 [1, 3]: 12.7 µM; IC50 [2, 4]: 12.7 µM
16 | COc1cc([N+](=O)[O-])c2cc1Oc1ccc(cc1)C[C@H]1c3cc(c(OC)cc3CCN1C)Oc1c(OCc3ccccc3)c(OC)cc3c1[C@H](C2)N(C)CC3 [Compound H-32] |  |  | 8.9 | 1.26 | 
17 | COc1cc([N+](=O)[O-])c2cc1Oc1ccc(cc1)C[C@H]1c3cc(c(OC)cc3CCN1C)Oc1c(OC(=O)c3ccccc3)c(OC)cc3c1[C@H](C2)N(C)CC3 [Compound H-33] |  |  | 9.3 |  | 
18 | COc1cc(N)c2cc1Oc1ccc(cc1)C[C@H]1c3cc(c(OC)cc3CCN1C)Oc1c(OC(=O)c3ccccc3)c(OC)cc3c1[C@H](C2)N(C)CC3 [Compound H-34] |  |  | 7.8 | 6.6 | 

Row | SMILES | IC50 [1, 5] [µM] | IC50 [2, 6] [µM] | IC50 [1, 7] [µM] | IC50 [2, 8] [µM] | further results
19 | COc1cc2c3cc1Oc1c(OC)c(OC)c(Br)c4c1[C@H](Cc1c([N+](=O)[O-])cc(OC)c(c1Br)Oc1ccc(cc1)C[C@@H]3N(C)CC2)N(C)CC4 [Compound H-36] |  |  | 11.9 | 12.1 | 
20 | C=C(OC)/C(OC)=C1/Oc2cc3c(cc2OC)CCN(C)[C@H]3Cc2ccc(cc2)Oc2cc(c(S(=O)(=O)O)cc2OC)C[C@H]2C1=CCCN2C [Compound H-37] |  |  | 7.6 | 7.3 | 
21 | COc1cc(S(=O)(=O)Nc2ccccc2)c2cc1Oc1ccc(cc1)C[C@H]1c3cc(c(OC)cc3CCN1C)Oc1c(OC)c(OC)cc3c1[C@H](C2)N(C)CC3 [Compound H-38] |  |  | 10.2 | 10.7 | 
22 | COc1cc(S(=O)(=O)OC)c2cc1Oc1ccc(cc1)C[C@H]1c3cc(c(OC)cc3CCN1C)Oc1c(OC)c(OC)cc3c1[C@H](C2)N(C)CC3 [Compound H-39] |  |  | 8.1 | 9.9 | 
23 | COc1cc(S(=O)(=O)O)c2cc1Oc1ccc(cc1)C[C@H]1c3cc(c(OC)cc3CCN1C)Oc1c(OC)c(OC)c(Br)c3c1[C@H](C2)N(C)CC3 [Compound H-40] | 10.5 | 9.2 |  |  | 
24 | COc1cc2c3cc1Oc1c(OC)c(OC)c(Br)c4c1[C@H](Cc1c(S(=O)(=O)O)cc(OC)c(c1Br)Oc1ccc(cc1)C[C@@H]3N(C)CC2)N(C)CC4 [Compound H-41] |  |  | 9 | 8.6 | 
25 | COc1ccc2cc1Oc1ccc(cc1)C[C@H]1c3cc(c(OC)cc3CCN1C)Oc1c(ON=O)c(OC)cc3c1[C@H](C2)N(C)CC3 [Compound H-42] |  |  | 3.4 | 9.6 | 
26 | COc1cc([N+](=O)[O-])c2cc1Oc1ccc(cc1)C[C@H]1c3cc(c(OC)cc3CCN1C)Oc1c(OC)c(OC)c(Cl)c3c1[C@H](C2)N(C)CC3 [Compound H-43] |  |  | 8.1 | 8.8 | 
27 | COc1cc2c3cc1Oc1c(OC)c(OC)c(Cl)c4c1[C@H](Cc1c([N+](=O)[O-])cc(OC)c(c1Cl)Oc1ccc(cc1)C[C@@H]3N(C)CC2)N(C)CC4 [Compound H-44] | 4.1 | 9.4 |  |  | 
28 | COc1cc(S(=O)(=O)O)c2cc1Oc1ccc(cc1)C[C@H]1c3cc(c(OC)cc3CCN1C)Oc1c(OC(=O)c3ccccc3)c(OC)cc3c1[C@H](C2)N(C)CC3 [Compound H-45] |  |  | 11.7 | 8.9 | 
29 | COc1ccc2cc1Oc1ccc(cc1)C[C@H]1c3cc(c(OC)cc3CCN1C)Oc1c(OC(C)=O)c(OC)c(Br)c3c1[C@H](C2)N(C)CC3 [Compound H-48] |  |  |  |  | IC50 [1, 3]: 0.5 µM; IC50 [2, 4]: 4.1 µM
30 | COc1cc(Br)c2cc1Oc1ccc(cc1)C[C@H]1c3cc(c(OC)cc3CCN1C)Oc1c(OC(C)=O)c(OC)c(Br)c3c1[C@H](C2)N(C)CC3 [Compound H-49] |  |  |  |  | IC50 [1, 3]: 2.4 µM; IC50 [2, 4]: 8.7 µM
31 | COc1cc(Cl)c2cc1Oc1ccc(cc1)C[C@H]1c3cc(c(OC)cc3CCN1C)Oc1c(OC(C)=O)c(OC)c(Cl)c3c1[C@H](C2)N(C)CC3 [Compound H-50] | 9.8 | 3.3 |  |  | 
32 | COc1cc2c3cc1Oc1c(OC(C)=O)c(OC)c(Cl)c4c1[C@H](Cc1c(Cl)cc(OC)c(c1Cl)Oc1ccc(cc1)C[C@@H]3N(C)CC2)N(C)CC4 [Compound H-51] |  |  |  |  | IC50 [1, 3]: 1.4 µM; IC50 [2, 4]: 10.4 µM
33 | COc1cc([N+](=O)[O-])c2cc1Oc1ccc(cc1)C[C@H]1c3cc(c(OC)cc3CCN1C)Oc1c(OC(=O)c3ccccc3)c(OC)cc3c1[C@H](C2)N(C)CC3 [Compound H-52] | 6.7 | 9.7 |  |  | 
34 | COc1cc(S(=O)(=O)O)c2cc1Oc1ccc(cc1)C[C@H]1c3cc(c(OC)cc3CCN1C)Oc1c(O)c(OC)cc3c1[C@H](C2)N(C)CC3 [Compound H-53] |  |  | 3.2 | 1.1 | 
35 | COc1cc(Cl)c2cc1Oc1ccc(cc1)C[C@H]1c3cc(c(OC)cc3CCN1C)Oc1c(OC)c(OC)c(Br)c3c1[C@H](C2)N(C)CC3 [Compound H-54] |  |  | 3.2 | 0.4 | 
36 | CNC(=O)c1cc(Oc2ccc(NC(=O)Nc3ccc(Cl)c(C(F)(F)F)c3)cc2)ccn1 [Sorafenib, reference compound] |  | 34.4 | 26.9 | 34.4 | 
